Experimental data: ChEMBL document CHEMBL1201862, “PubChem BioAssay data set” (2004)
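Exposure lasted 48 hours, with cells grown in 96-well plates and compounds tested at five concentrations. At the GI50, growth is halved.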 The source made the active and inactive calls. No stated cut-off is given here; in the data, active = GI50 up to about 1.1 µM and inactive = higher.

Experiments:
Test in all cases: NCI-60 cell line screen, 48 h
[1] = test system: A498
[2] = test system: EKVX
[3] = test system: SF-295
[4] = test system: MDA-N
[5] = test system: NCI-H460
[6] = test system: COLO 205
[7] = test system: SF-268
[8] = test system: OVCAR-5
[9] = test system: TK-10
[10] = test system: DU-145
[11] = test system: SK-MEL-28
[12] = test system: BT-549
[13] = test system: Hs-578T
[14] = test system: SK-MEL-5
[15] = test system: OVCAR-3
[16] = test system: HCT-15
[17] = test system: SW-620
[18] = test system: MDA-MB-231
[19] = test system: SN12C
[20] = test system: SF-539
[21] = test system: NCI-H522
[22] = test system: OVCAR-4
[23] = test system: NCI/ADR-RES
[24] = test system: SK-OV-3
[25] = test system: HOP-62
[26] = test system: RXF 393
[27] = test system: A549
[28] = test system: ACHN
[29] = test system: M14
[30] = test system: UO-31
[31] = test system: U-251
[32] = test system: CAKI-1
[33] = test system: UACC-257
[34] = test system: K562
[35] = test system: 786-0
[36] = test system: UACC-62
[37] = test system: NCI-H23
[38] = test system: MCF7
[39] = test system: T47D
[40] = test system: MOLT-4
[41] = test system: SNB-75
[42] = test system: KM12
[43] = test system: OVCAR-8
[44] = test system: PC-3
[45] = test system: HCT-116
[46] = test system: SK-MEL-2
[47] = test system: RPMI-8226
[48] = test system: MDA-MB-435
[49] = test system: SNB-19
[50] = test system: HT-29
[51] = test system: SR
[52] = test system: IGROV-1
[53] = test system: LOX IMVI
[54] = test system: HOP-92
[55] = test system: CCRF-CEM
[56] = test system: HL-60
[57] = test system: Malme-3M
[58] = test system: NCI-H226

CCCCCCCCCc1nn2c(Cc3ccccc3)nnc2s1
GI50 [1]: 18.2 µM (inactive)
GI50 [2]: 15.5 µM (inactive)
GI50 [3]: 18.9 µM (inactive)
GI50 [4]: 20.6 µM (inactive)
GI50 [5]: 18.5 µM (inactive)
GI50 [6]: 17.5 µM (inactive)
GI50 [7]: 16.7 µM (inactive)
GI50 [8]: 14.4 µM (inactive)
GI50 [9]: 24.6 µM (inactive)
GI50 [10]: 22.4 µM (inactive)
GI50 [11]: 17.7 µM (inactive)
GI50 [12]: 18.8 µM (inactive)
GI50 [13]: 20.8 µM (inactive)
GI50 [14]: 15.9 µM (inactive)
GI50 [15]: 17.2 µM (inactive)
GI50 [16]: 19.5 µM
GI50 [17]: 17.6 µM (inactive)
GI50 [18]: 24.5 µM (inactive)
GI50 [19]: 18.2 µM (inactive)
GI50 [20]: 18.1 µM (inactive)
GI50 [21]: 14 µM (inactive)
GI50 [22]: 20 µM (inactive)
GI50 [23]: 16.7 µM (inactive)
GI50 [24]: 25.5 µM (inactive)
GI50 [25]: 19.9 µM (inactive)
GI50 [26]: 18.5 µM (inactive)
GI50 [27]: 20.5 µM (inactive)
GI50 [28]: 20 µM (inactive)
GI50 [29]: 20.8 µM (inactive)
GI50 [30]: 13.1 µM (inactive)
GI50 [31]: 18.7 µM (inactive)
GI50 [32]: 30.3 µM (inactive)
GI50 [33]: 23.5 µM (inactive)
GI50 [34]: 32.5 µM (inactive)
GI50 [35]: 19.2 µM (inactive)
GI50 [36]: 18 µM (inactive)
GI50 [37]: 19.2 µM (inactive)
GI50 [38]: 41.1 µM (inactive)
GI50 [39]: 24.7 µM (inactive)
GI50 [40]: 17.3 µM (inactive)
GI50 [41]: 26.4 µM (inactive)
GI50 [42]: 25 µM (inactive)
GI50 [43]: 15.3 µM (inactive)
GI50 [44]: 22.1 µM (inactive)
GI50 [45]: 18 µM (inactive)
GI50 [46]: 19.8 µM (inactive)
GI50 [47]: 23.6 µM (inactive)
GI50 [48]: 26.3 µM (inactive)
GI50 [49]: 18.2 µM (inactive)

COC(=O)C(/C(=N/NC(=O)c1ccncc1)C(=O)Nc1ccccc1OC)c1nc2ccc(Cl)cc2nc1O (centres undefined)
GI50 [1]: > 100 µM (inactive)
GI50 [2]: 77.8 µM (inactive)
GI50 [3]: > 100 µM (inactive)
GI50 [4]: 47.2 µM (inactive)
GI50 [5]: > 100 µM (inactive)
GI50 [50]: > 100 µM (inactive)
GI50 [7]: > 100 µM (inactive)
GI50 [8]: > 100 µM (inactive)
GI50 [9]: > 100 µM (inactive)
GI50 [11]: > 100 µM (inactive)
GI50 [12]: > 100 µM (inactive)
GI50 [13]: > 100 µM (inactive)
GI50 [14]: > 100 µM (inactive)
GI50 [51]: 780 nM (active)
GI50 [15]: > 100 µM (inactive)
GI50 [16]: 63.5 µM
GI50 [17]: > 100 µM (inactive)
GI50 [18]: > 100 µM (inactive)
GI50 [19]: > 100 µM (inactive)
GI50 [20]: > 100 µM (inactive)
GI50 [21]: > 100 µM (inactive)
GI50 [22]: 55 µM (inactive)
GI50 [23]: > 100 µM (inactive)
GI50 [24]: > 100 µM (inactive)
GI50 [52]: 11 µM (inactive)
GI50 [25]: > 100 µM (inactive)
GI50 [26]: > 100 µM (inactive)
GI50 [27]: > 100 µM (inactive)
GI50 [53]: > 100 µM (inactive)
GI50 [28]: > 100 µM (inactive)
GI50 [29]: > 100 µM (inactive)
GI50 [30]: 47 µM (inactive)
GI50 [31]: > 100 µM (inactive)
GI50 [32]: > 100 µM (inactive)
GI50 [54]: > 100 µM (inactive)
GI50 [33]: > 100 µM (inactive)
GI50 [34]: 75.9 µM (inactive)
GI50 [35]: > 100 µM (inactive)
GI50 [36]: > 100 µM (inactive)
GI50 [37]: > 100 µM (inactive)
GI50 [38]: > 100 µM (inactive)
GI50 [55]: > 10 µM (inactive)
GI50 [56]: > 100 µM (inactive)
GI50 [39]: > 100 µM (inactive)
GI50 [40]: > 100 µM (inactive)
GI50 [41]: > 100 µM (inactive)
GI50 [42]: 92 µM (inactive)
GI50 [43]: > 100 µM (inactive)
GI50 [44]: > 100 µM (inactive)
GI50 [45]: 83.4 µM (inactive)
GI50 [57]: > 100 µM (inactive)
GI50 [46]: > 100 µM (inactive)
GI50 [58]: 22.2 µM (inactive)
GI50 [47]: 75.5 µM (inactive)
GI50 [48]: 44.3 µM (inactive)
